Results: US20220249399A1, “COMPOSITION COMPRISING AN ANTI-OXIDANT TO PRESERVE CORNEAL TISSUE” (University of lowa Research Foundation, priority 2019, published 2022)
“Also recorded” adds a separate entry of the source. Marks after values point to notes of the source that are not given here.

Test system: human donor corneal endothelial cells
Assay: Mitochondrial respiration assay (Seahorse XFe24 extracellular flux analyzer) of donor corneal endothelium after storage in supplemented Optisol GS
Assay type: cell-based
Details: for ATP Production, Mean (SD) / Maximal Respiration, Mean (SD) / Non-mitochondrial Respiration, Median [IQR] / Proton Leak, Mean (SD) / Spare Respiratory Capacity, Mean (SD) / Basal, Mean (SD): OCR per cell (pmole/min/cell)
Description: Human corneal tissue pairs were obtained by Iowa Lions Eye Bank (ILEB) from nondiabetic donors 60-75 years old and stored in Optisol GS (Bausch+Lomb, Irvine, Calif.) at 4° C. following procurement in accordance with Eye Bank Association of America and ILEB policies and procedures. For 5 days prior to testing, but within 9 days of procurement, one stored tissue from a corneal pair was treated with 10 μM CoQ10, while the mate tissue was treated with diluent only as a control. Descemet membrane and endothelial cell punches were collected and mounted onto the bottom of a Seahorse assay plate (cells facing upward). Mitochondrial respiration was assayed by measuring oxygen consumption using the Seahorse XFe24 Extracellular Flux Analyzer (Agilent Technologies, Santa Clara, Calif.) over 120 minutes (9-minute intervals). Punches were labeled with a nuclear counterstain (DAPI) and remaining tissues were mounted onto slides and labeled with 488A-Annexin V, Ethidium Homodimer III, and Hoechst 33342 (Apoptotic, Necrotic, and Healthy Cells Quantification Kit; Biotium, Fremont, Calif.) to assay cell health. Nuclei were counted in each punch to normalize respirometry data. Immunohistochemistry densitometry was measured using ImageJ software.
Human donor whole globe eye pairs were obtained by Iowa Lions Eye Bank (ILEB) and the anterior portion of the eyes were removed. For 14 days, one cornea was stored from a corneal pair treated with 1 mM ascorbate-2-phosphate, while the mate tissue was treated with diluent only as a control. Descemet membrane and endothelial cell punches were collected and mounted onto the bottom of a Seahorse assay plate (cells facing upward). Mitochondrial respiration was assayed by measuring oxygen consumption using the Seahorse XFe24 Extracellular Flux Analyzer (Agilent Technologies, Santa Clara, Calif.) over 120 minutes (9-minute intervals). Punches were labeled with a nuclear counterstain (DAPI) and nuclei were counted in each punch to normalize respirometry data. […]
Tissue preparation and extracellular flux assays for mitochondrial respiration were performed as described in Greiner et al. (2015). In brief, after pre-stripping the EDM, 3 mm diameter EDM punches were mounted in wells of a XF24 microplate (Agilent Technologies, Santa Clara, Calif.). After acclimation for one hour at 37° C. in non-buffered assay media, metabolic activity of the EDM samples was quantified using a commercial kit (XF Cell Mito Stress Test Kits; Agilent Technologies) on a Seahorse XFe24 extracellular flux analyzer (Agilent Technologies). Following extracellular flux analysis, tissues were labeled fluorescently using a 1:1000 Sytox Green nucleic acid stain in the microtiter plate (Life Technologies, Grand Island, N.Y.) and imaged on an Olympus IX-81 inverted microscope (Olympus America, Center Valley, Pa.) using a FITC filter. Cell counts were determined using Image J (https://imagej.nih.gov/ij/download.html) and used to compute the oxygen consumption rate per cell (OCR; pmole/min/cell). Raw OCR values were used to calculate several different key parameters of metabolic function per manufacturer's directions (Agilent Technologies), as in Aldrich et al. (2017). The parameters and calculations used in this study were the main outcome measures, including basal respiration, ATP-associated oxygen consumption, proton [H^+] leak, maximal respiration, spare respiratory capacity, non-mitochondrial respiration, and coupling efficiency as described in Schneider et al. and Goldstein et al. (2018).
Mitochondrial Respiration Assay: 3 mm punches of central and peripheral endothelium-Descemet membrane complex (EDM) were secured to the bottom of cell culture microplate wells or CECs were grown directly onto microplate.

[1] = 10 μM CoQ10 (ubiquinol), 5 days in Optisol GS, vs diluent-treated mate cornea, 13 or 14 paired corneas
[2] = 10 μM ubiquinol vs diluent-treated mate cornea, 5 days, n = 13
[3] = 10 μM ubiquinol, 5 days in Optisol-GS, n = 13
[4] = Example 13: 10 μM ubiquinol, 5 days in Optisol-GS, N=13, vs controls
[5] = palmitate-BSA treated tissues (100 μM), 5 days, n = 7

In the case of ubiquinol, the non-mitochondrial respiration (1 μM coQ10, among doses 0.5, 1, 5, 7.5 μM) is reported as “largest increase in non-mitochondrial respiration”, the “mitochondrial spare respiratory capacity” value (1 μM coQ10, tissues in storage (compared with the 10 μM dose)) is reported as “did not show a bolstering of mitochondrial spare respiratory capacity function” and the proton leak increased (10 μM CoQ10 (ubiquinol), 5 days in Optisol GS at 4° C., vs diluent-treated mate cornea, 13 or 14 paired corneas) is reported as 34%. The maximal respiration increased [1] was 97%, the “spare respiratory capacity increased” value [1] was 133% and the “ATP Production, Mean Difference: Ubiquinol-Control (95% CI)” value [2] was −0.0001 (−0.0033, 0.0032). For the same substance, the “Basal, Mean Ratio: Ubiquinol/Control (95% CI)” value [2] was “Ratio: 1.12 (0.88, 1.43)”, the “Coupling Efficiency, Mean Difference: Ubiquinol-Control (95% CI)” value [2] was −0.0655 (−0.1550, 0.0240) and the “Maximal Respiration, Mean Ratio: Ubiquinol/Control (95% CI)” value [2] was “Ratio: 1.93 (1.31, 2.85)”. The “Non-mitochondrial Respiration, Median Difference: Ubiquinol-Control (95% CI)” value [2] was 0.000013^# (−0.00255, 0.00123), the “Proton Leak, Mean Ratio: Ubiquinol/Control (95% CI)” value [2] was “Ratio: 1.80 (1.01, 3.21)” and the “Spare Respiratory Capacity, Mean Ratio: Ubiquinol/Control (95% CI)” value [2] was “Ratio: 2.74 (1.61, 4.66)”. For the same substance, the “Coupling Efficiency, Mean (SD)” value [3] was 0.5303 (0.1141), the “ATP Production, Mean (SD)” value [3] was 0.0116 (0.0049) and the “Maximal Respiration, Mean (SD)” value [3] was 0.0998 (0.0799). The “Non-mitochondrial Respiration, Median [IQR]” value [3] was 0.00662, the “Proton Leak, Mean (SD)” value [3] was 0.0091 (0.0049) and the “Spare Respiratory Capacity, Mean (SD)” value [3] was 0.0781 (0.0734). The “Basal, Mean (SD)” value (10 μM ubiquinol, 5 days in Optisol-GS, n = 13 matched tissues) was 0.0202 (0.0087), the maximal respiration increased [4] was 93% and the proton leak increased [4] was 80%. For the same substance, the “spare respiratory capacity increased” value [4] was 174%, the “Basal, Mean (SD)” value (palmitate-BSA treated tissues (100 μM), 5 days in Optisol-GS, n = 7 matched tissues) was 0.0251 (0.0138) and the “Coupling Efficiency, Mean (SD)” value [5] was 0.5376 (0.1891). The “ATP Production, Mean (SD)” value [5] was 0.0155 (0.0090), the “Maximal Respiration, Mean (SD)” value [5] was 0.1102 (0.0309) and the “Non-mitochondrial Respiration, Median [IQR]” value [5] was 0.00809. For the same substance, the “Proton Leak, Mean (SD)” value [5] was 0.0106 (0.0075), the “Spare Respiratory Capacity, Mean (SD)” value [5] was 0.0833 (0.0212) and the “oxygen consumption rate (OCR) of CEC” value (ubiquinol supplemented vs non-supplemented CEC (FIG. 1)) was “High OCR; also recorded: increased oxygen consumption rate”.
